For series [1], the target named is T1, C. elegans farnesyltransferase (ceFTase) (Caenorhabditis elegans, UniProt O44501+Q19752).
T1 construct: gene fntb-1; coding regions of FTα (NM_001392242.1) and FTβ (NM_001392654.1), N-terminal His-tag on β-subunit; with farnesyltransferase α-subunit (ceFNTA)
T1 sequence (Q19752 1-401): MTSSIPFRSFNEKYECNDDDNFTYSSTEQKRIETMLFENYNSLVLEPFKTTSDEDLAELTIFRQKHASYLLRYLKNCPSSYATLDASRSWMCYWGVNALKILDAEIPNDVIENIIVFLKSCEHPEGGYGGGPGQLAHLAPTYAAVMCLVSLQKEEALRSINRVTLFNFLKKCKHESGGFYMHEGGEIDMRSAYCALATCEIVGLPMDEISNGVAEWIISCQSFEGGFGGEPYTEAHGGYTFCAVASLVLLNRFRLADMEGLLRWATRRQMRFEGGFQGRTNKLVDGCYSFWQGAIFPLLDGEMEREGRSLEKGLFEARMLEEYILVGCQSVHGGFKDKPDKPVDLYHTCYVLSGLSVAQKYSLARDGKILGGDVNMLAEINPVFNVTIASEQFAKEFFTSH
T1 sequence (O44501 1-328): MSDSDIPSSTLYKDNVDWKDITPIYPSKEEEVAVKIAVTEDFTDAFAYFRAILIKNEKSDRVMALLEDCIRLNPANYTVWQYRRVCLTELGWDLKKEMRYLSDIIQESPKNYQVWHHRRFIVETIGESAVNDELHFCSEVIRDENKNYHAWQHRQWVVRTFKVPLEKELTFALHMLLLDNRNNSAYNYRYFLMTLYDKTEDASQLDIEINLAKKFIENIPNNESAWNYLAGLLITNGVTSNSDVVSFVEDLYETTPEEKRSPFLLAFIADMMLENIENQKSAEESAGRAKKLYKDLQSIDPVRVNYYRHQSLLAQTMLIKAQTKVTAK
As to the kind of experiment: continuous fluorescence assay with Dansyl-GCVLS and FPP, […]°C; Ki calculated from IC50 […] (Cheng-Prusoff). Format: biochemical.

The target of series [2] is T2, human farnesyltransferase (hFTase) (Homo sapiens, UniProt P49354+P49356).
T2 construct: gene FNTB; IMAC purified FTase, FTα/FTβ heterodimer, His-tagged β-subunit; with farnesyltransferase α-subunit (FNTA)
The description is as above. In kind it is biochemical.

Substrate in the series “purified protein”: CC(C)=CCC/C(C)=C/CC/C(C)=C/CO[P@@](=O)(O)OP(=O)(O)O
As to the kind of experiment: purified protein. Conditions: Zn2+ ([…] ZnCl2 in assay).

Take `CCCC[C@@H](C)/C=C(C)/C=C(\C)C(=O)NC1=C[C@@](O)(/C=C/C=C/C=C/C(=O)NC2=C(O)CCC2=O)[C@@H]2O[C@@H]2C1=O` [Manumycin A]: the Ki (usually the equilibrium dissociation constant of an inhibitor or competing ligand from its target) in series [1] was 3.16 µM; in series [2], 4.4 µM.

B1: C. elegans farnesyltransferase (ceFTase) (Caenorhabditis elegans) (protein)
chain 1: MTSSIPFRSFNEKYECNDDDNFTYSSTEQKRIETMLFENYNSLVLEPFKTTSDEDLAELTIFRQKHASYLLRYLKNCPSSYATLDASRSWMCYWGVNALKILDAEIPNDVIENIIVFLKSCEHPEGGYGGGPGQLAHLAPTYAAVMCLVSLQKEEALRSINRVTLFNFLKKCKHESGGFYMHEGGEIDMRSAYCALATCEIVGLPMDEISNGVAEWIISCQSFEGGFGGEPYTEAHGGYTFCAVASLVLLNRFRLADMEGLLRWATRRQMRFEGGFQGRTNKLVDGCYSFWQGAIFPLLDGEMEREGRSLEKGLFEARMLEEYILVGCQSVHGGFKDKPDKPVDLYHTCYVLSGLSVAQKYSLARDGKILGGDVNMLAEINPVFNVTIASEQFAKEFFTSH
chain 2: MSDSDIPSSTLYKDNVDWKDITPIYPSKEEEVAVKIAVTEDFTDAFAYFRAILIKNEKSDRVMALLEDCIRLNPANYTVWQYRRVCLTELGWDLKKEMRYLSDIIQESPKNYQVWHHRRFIVETIGESAVNDELHFCSEVIRDENKNYHAWQHRQWVVRTFKVPLEKELTFALHMLLLDNRNNSAYNYRYFLMTLYDKTEDASQLDIEINLAKKFIENIPNNESAWNYLAGLLITNGVTSNSDVVSFVEDLYETTPEEKRSPFLLAFIADMMLENIENQKSAEESAGRAKKLYKDLQSIDPVRVNYYRHQSLLAQTMLIKAQTKVTAK
Take B1: the Km (in general, the substrate concentration at which the rate is half of its maximum) in the series “purified protein” worked out at 1.3 µM.

The values above are taken from article PMC9763582, “Analyzing the postulated inhibitory effect of Manumycin A on farnesyltransferase” (Frontiers in Chemistry, 2022).
